Measurements published in patent US12077503B2, “Substituted cyclic amides and their use as herbicides” (FMC CORPORATION, priority 2015, dated 2024).

Assays:
Assay type in all cases: in vivo
Kochia (Kochia scoparia) [1] = experiment: Test A preemergence; conditions: for Plant response rating, Kochia: 125 g ai/ha, preemergence, 0 to 100 scale (0 no effect, 100 complete control); for Kochia plant response rating (0 to 100 scale, 0 is no effect, 100 is complete control): visual injury approx. 10 d
Method in brief: (§1)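 In a loam soil and sand blend, planted seeds got a preemergence directed soil spray, and young plants at the one- to two-leaf stage, 2–10 cm high, got a postemergence application; ~10 d greenhouse hold; injury rated visually, 0 = none, 100 = complete control.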

[2] = system: pigweed (Amaranthus retroflexus); experiment: Test A preemergence; conditions: for Plant response rating, Pigweed: 125 g ai/ha, preemergence, 0 to 100 scale (0 no effect, 100 complete control); for Pigweed plant response rating (0 to 100 scale, 0 is no effect, 100 is complete control): visual injury approx. 10 d
[3] = system: ragweed (common ragweed, Ambrosia elatior); experiment: Test A preemergence; conditions: for Plant response rating, Ragweed: 125 g ai/ha, preemergence, 0 to 100 scale (0 no effect, 100 complete control); for Ragweed plant response rating (0 to 100 scale, 0 is no effect, 100 is complete control): visual injury approx. 10 d
Method in brief: as §1

[4] = system: barnyardgrass (Echinochloa crus-galli); experiment: Test A preemergence; conditions: for Plant response rating, Barnyardgrass: 125 g ai/ha, preemergence, 0 to 100 scale (0 no effect, 100 complete control); for Barnyardgrass plant response rating (0 to 100 scale, 0 is no effect, 100 is complete control): visual injury approx. 10 d
Method in brief: as §1

[5] = system: giant foxtail (Setaria faberii); experiment: Test A preemergence; conditions: for Plant response rating, Foxtail, Giant: 125 g ai/ha, preemergence, 0 to 100 scale (0 no effect, 100 complete control); for Foxtail, Giant plant response rating (0 to 100 scale, 0 is no effect, 100 is complete control): visual injury approx. 10 d
Method in brief: as §1

[6] = system: ryegrass, Italian (Italian ryegrass, Lolium multiflorum); experiment: Test A preemergence; conditions: for Plant response rating, Ryegrass, Italian: 125 g ai/ha, preemergence, 0 to 100 scale (0 no effect, 100 complete control); for Ryegrass, Italian plant response rating (0 to 100 scale, 0 is no effect, 100 is complete control): visual injury approx. 10 d
Method in brief: as §1

Kochia (Kochia scoparia) [7] = experiment: Test A postemergence; conditions: postemergence; for Kochia plant response rating: 125 g ai/ha, visual injury rating on 0 to 100 scale (0 no effect, 100 complete control), approx. 10 d; for Plant response rating, Kochia: 500 g ai/ha, 0 to 100 scale, 0 no effect, 100 complete control
Method in brief: as §1

[8] = system: pigweed (Amaranthus retroflexus); experiment: Test A postemergence; conditions: postemergence; for Pigweed plant response rating: 125 g ai/ha, visual injury rating on 0 to 100 scale (0 no effect, 100 complete control), approx. 10 d; for Plant response rating, Pigweed: 500 g ai/ha, 0 to 100 scale, 0 no effect, 100 complete control
Method in brief: as §1

corn (Zea mays) = experiment: Test A postemergence; conditions: postemergence; for Corn plant response rating: 125 g ai/ha, visual injury rating on 0 to 100 scale (0 no effect, 100 complete control), approx. 10 d; for Plant response rating, Corn: 500 g ai/ha, 0 to 100 scale, 0 no effect, 100 complete control
Method in brief: as §1

[9] = system: wheat (Triticum aestivum); experiment: Test A postemergence; conditions: postemergence; for Wheat plant response rating: 125 g ai/ha, visual injury rating on 0 to 100 scale (0 no effect, 100 complete control), approx. 10 d; for Plant response rating, Wheat: 500 g ai/ha, 0 to 100 scale, 0 no effect, 100 complete control
Method in brief: as §1

[10] = system: blackgrass (Alopecurus myosuroides); experiment: Test A postemergence; conditions: for Blackgrass plant response rating: visual injury rating on 0 to 100 scale (0 no effect, 100 complete control)
Method in brief: as §1

[11] = system: ragweed (common ragweed, Ambrosia elatior); experiment: Test A postemergence; conditions: postemergence; for Ragweed plant response rating: 125 g ai/ha, visual injury rating on 0 to 100 scale (0 no effect, 100 complete control), approx. 10 d; for Plant response rating, Ragweed: 500 g ai/ha, 0 to 100 scale, 0 no effect, 100 complete control
Method in brief: as §1

[12] = system: barnyardgrass (Echinochloa crus-galli); experiment: Test A postemergence; conditions: for Barnyardgrass plant response rating: visual injury rating on 0 to 100 scale (0 no effect, 100 complete control)
Method in brief: as §1

[13] = system: giant foxtail (Setaria faberii); experiment: Test A postemergence; conditions: postemergence; for Foxtail, Giant plant response rating: 125 g ai/ha, visual injury rating on 0 to 100 scale (0 no effect, 100 complete control), approx. 10 d; for Plant response rating, Foxtail, Giant: 500 g ai/ha, 0 to 100 scale, 0 no effect, 100 complete control
Method in brief: as §1

[14] = system: Galium (catchweed bedstraw, Galium aparine); experiment: Test A postemergence; conditions: postemergence; for Galium plant response rating: 125 g ai/ha, visual injury rating on 0 to 100 scale (0 no effect, 100 complete control), approx. 10 d; for Plant response rating, Galium: 500 g ai/ha, 0 to 100 scale, 0 no effect, 100 complete control
Method in brief: as §1

[15] = system: ryegrass, Italian (Italian ryegrass, Lolium multiflorum); experiment: Test A postemergence; conditions: postemergence; for Ryegrass, Italian plant response rating: 125 g ai/ha, visual injury rating on 0 to 100 scale (0 no effect, 100 complete control), approx. 10 d; for Plant response rating, Ryegrass, Italian: 500 g ai/ha, 0 to 100 scale, 0 no effect, 100 complete control
Method in brief: as §1

[16] = system: ducksalad (Heteranthera limosa); experiment: Test B flooded paddy test; conditions: Flood, 250 g ai/ha; 0 to 100 scale where 0 is no effect and 100 is complete control; 13 to 15 d
Method in brief: (§2)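 Flooding to 3 cm over soil accompanied treatment, which consisted of adding compound to the standing water around 2-leaf plants; depth was then maintained. Visual assessment versus controls followed at 13 to 15 d (scale 0–100, 0 meaning no effect).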

[17] = system: barnyardgrass (Echinochloa crus-galli); experiment: Test B flooded paddy test; conditions: Flood, 250 g ai/ha; 0 to 100 scale where 0 is no effect and 100 is complete control; 13 to 15 d
Method in brief: as §2

[18] = system: sedge, umbrella (small-flower umbrella sedge, Cyperus difformis); experiment: Test B flooded paddy test; conditions: Flood, 250 g ai/ha; 0 to 100 scale where 0 is no effect and 100 is complete control; 13 to 15 d
Method in brief: as §2

rice (Oryra sativa) = experiment: Test B flooded paddy test; conditions: Flood, 250 g ai/ha; 0 to 100 scale where 0 is no effect and 100 is complete control; 13 to 15 d
Method in brief: as §2

[19] = Preemergence, 500 g ai/ha, 0 is no effect, 100 is complete control
[20] = 500 g ai/ha, postemergence, 0 to 100 scale, 0 no effect, 100 complete control
[21] = Postemergence, 125 g ai/ha, visual injury, 0 to 100 scale (0 no effect, 100 complete control), approx. 10 d
[22] = 125 g ai/ha, postemergence, approx. 10 d

SMILES	Plant response rating, Kochia (Kochia (Kochia scoparia) [1])	Plant response rating, Pigweed [2]	Plant response rating, Ragweed [3]	Plant response rating, Barnyardgrass [4]	Plant response rating, Foxtail, Giant [5]	Plant response rating, Ryegrass, Italian [6]	Kochia plant response rating (Kochia (Kochia scoparia) [7])	Plant response rating, Kochia (Kochia (Kochia scoparia) [7])	Pigweed plant response rating [8]	Plant response rating, Pigweed [8]	Corn plant response rating (corn (Zea mays))	Plant response rating, Corn (corn (Zea mays))	Wheat plant response rating [9]	Plant response rating, Wheat [9]	Plant response rating, Blackgrass [10, 20]	Ragweed plant response rating [11]	Plant response rating, Ragweed [11]	Plant response rating, Barnyardgrass [12, 20]	Foxtail, Giant plant response rating [13]	Plant response rating, Foxtail, Giant [13]	also measured
O=C1NCC(c2cccc(OC(F)(F)C(F)F)c2)C1C(=O)Nc1ccccc1C(F)F (stereo not drawn) [Compound 391]	30	70	80	80	90	20	0	60	30	50	40	70	0	50	70	20	30	80	90	90	Kochia plant response rating (0 to 100 scale) (Kochia (Kochia scoparia) [1]; [19]): 50; Pigweed plant response rating (0 to 100 scale) [2, 19]: 70; Ragweed plant response rating (0 to 100 scale) [3, 19]: 80; Barnyardgrass plant response rating (0 to 100 scale) [4, 19]: 90; Foxtail, Giant plant response rating (0 to 100 scale) [5, 19]: 90; Ryegrass, Italian plant response rating (0 to 100 scale) [6, 19]: 50; Plant response rating, Blackgrass [10, 21]: 50; Plant response rating, Barnyardgrass [12, 21]: 60; Galium plant response rating [14]: 60; Plant response rating, Galium [14]: 60; Ryegrass, Italian plant response rating [15]: 30; Plant response rating, Ryegrass, Italian [15]: 40; Plant response rating, Ducksalad [16]: 100; Plant response rating, Barnyardgrass [17]: 40; Plant response rating, Sedge, Umbrella [18]: 0; Plant response rating, Rice (rice (Oryra sativa)): 0
CN1CC(c2ccc(C(F)(F)F)c(F)c2)C(C(=O)Nc2ccc(F)cc2F)C1=O (stereo not drawn) [Compound 398]	70	70	20	90	90	30	60	80	50	60	60	70	20	70	60	0	0	90	80	90	Kochia plant response rating (0 to 100 scale, 0 is no effect, 100 is complete control) (Kochia (Kochia scoparia) [1]; Preemergence, 500 g ai/ha): 90; Pigweed plant response rating (0 to 100 scale, 0 is no effect, 100 is complete control) ([2]; Preemergence, 500 g ai/ha): 90; Ragweed plant response rating (0 to 100 scale, 0 is no effect, 100 is complete control) ([3]; Preemergence, 500 g ai/ha): 30; Barnyardgrass plant response rating (0 to 100 scale, 0 is no effect, 100 is complete control) ([4]; Preemergence, 500 g ai/ha): 90; Foxtail, Giant plant response rating (0 to 100 scale, 0 is no effect, 100 is complete control) ([5]; Preemergence, 500 g ai/ha): 90; Ryegrass, Italian plant response rating (0 to 100 scale, 0 is no effect, 100 is complete control) ([6]; Preemergence, 500 g ai/ha): 70; Blackgrass plant response rating [10, 22]: 40; Barnyardgrass plant response rating [12, 22]: 90; Galium plant response rating [14]: 50; Plant response rating, Galium [14]: 60; Ryegrass, Italian plant response rating [15]: 20; Plant response rating, Ryegrass, Italian [15]: 50; Plant response rating, Ducksalad [16]: 80; Plant response rating, Barnyardgrass [17]: 60; Plant response rating, Sedge, Umbrella [18]: 0; Plant response rating, Rice (rice (Oryra sativa)): 20
Cc1cc(C2CN(C)C(=O)C2C(=O)Nc2ccc(F)cc2F)ccc1F (stereo not drawn) [Compound 404]	60	30	0	90	90	0	60	70	20	60	40	80	50	80	60	30	50	90	90	90	Kochia plant response rating (0 to 100 scale, 0 is no effect, 100 is complete control) (Kochia (Kochia scoparia) [1]; Preemergence, 500 g ai/ha): 70; Pigweed plant response rating (0 to 100 scale, 0 is no effect, 100 is complete control) ([2]; Preemergence, 500 g ai/ha): 60; Ragweed plant response rating (0 to 100 scale, 0 is no effect, 100 is complete control) ([3]; Preemergence, 500 g ai/ha): 50; Barnyardgrass plant response rating (0 to 100 scale, 0 is no effect, 100 is complete control) ([4]; Preemergence, 500 g ai/ha): 90; Foxtail, Giant plant response rating (0 to 100 scale, 0 is no effect, 100 is complete control) ([5]; Preemergence, 500 g ai/ha): 90; Ryegrass, Italian plant response rating (0 to 100 scale, 0 is no effect, 100 is complete control) ([6]; Preemergence, 500 g ai/ha): 80; Blackgrass plant response rating [10, 22]: 40; Barnyardgrass plant response rating [12, 22]: 90; Galium plant response rating [14]: 50; Plant response rating, Galium [14]: 50; Ryegrass, Italian plant response rating [15]: 40; Plant response rating, Ryegrass, Italian [15]: 70; Plant response rating, Ducksalad [16]: 100; Plant response rating, Barnyardgrass [17]: 80; Plant response rating, Sedge, Umbrella [18]: 0; Plant response rating, Rice (rice (Oryra sativa)): 30
